Assay results reported in patent US11014941B2, “Pyrrolopyrimidine derivatives useful as inhibitors of influenza virus replication” (priority 2017, dated 2021).

The compounds below were run against Influenza PB2 (Influenza A virus, UniProt P03428) (assay: biochemical). Conditions: read-out: Influenza PB2 affinity, IC50.
Assay type: binding

Chain of Influenza PB2 (P03428 whole entry, looked up): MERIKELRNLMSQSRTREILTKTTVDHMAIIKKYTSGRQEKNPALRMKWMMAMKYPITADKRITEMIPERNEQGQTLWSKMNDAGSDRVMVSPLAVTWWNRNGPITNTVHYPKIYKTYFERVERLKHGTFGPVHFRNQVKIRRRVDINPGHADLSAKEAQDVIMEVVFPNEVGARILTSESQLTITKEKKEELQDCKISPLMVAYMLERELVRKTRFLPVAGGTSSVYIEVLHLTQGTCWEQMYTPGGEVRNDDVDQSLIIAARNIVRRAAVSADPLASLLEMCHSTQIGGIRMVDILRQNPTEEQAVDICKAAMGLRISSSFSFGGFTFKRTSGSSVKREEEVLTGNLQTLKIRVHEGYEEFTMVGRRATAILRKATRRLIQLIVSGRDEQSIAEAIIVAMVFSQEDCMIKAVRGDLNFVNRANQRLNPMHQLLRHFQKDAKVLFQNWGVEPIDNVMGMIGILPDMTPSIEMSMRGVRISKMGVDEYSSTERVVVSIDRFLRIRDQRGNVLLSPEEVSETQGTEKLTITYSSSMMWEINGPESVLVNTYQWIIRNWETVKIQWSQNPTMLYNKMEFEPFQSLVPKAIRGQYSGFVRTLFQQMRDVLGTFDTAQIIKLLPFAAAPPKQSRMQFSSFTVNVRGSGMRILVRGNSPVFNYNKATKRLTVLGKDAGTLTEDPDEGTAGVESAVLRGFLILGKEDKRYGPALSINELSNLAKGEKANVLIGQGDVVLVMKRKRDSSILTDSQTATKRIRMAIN

SMILES	IC50 [µM]
O=C(O)[C@@H]1CCCC[C@H]1n1ccc2cnc(-c3c[nH]c4ncc(F)cc34)nc21 (racemic) [Compound B15]	1 to 10
CNC(=O)[C@@H]1CCCC[C@H]1n1cc(F)c2cnc(-c3c[nH]c4ncc(Cl)cc34)nc21 (racemic) [Compound B95]	10 to 100
CCOCCOCCCCC(=O)N[C@H]1CCC[C@@H](n2ccc3cnc(-c4c[nH]c5ncc(F)cc45)nc32)C1 (relative stereo) [Compound B100]	10 to 100
O=C(O)[C@@H]1C2CCC(CC2)[C@H]1n1cc(-c2ccncc2F)c2cnc(-c3c[nH]c4ncc(Cl)cc34)nc21 (relative stereo) [Compound B211]	1 to 10
O=C(O)[C@@H]1C2CCC(CC2)[C@H]1n1cc(-c2ccncc2Cl)c2cnc(-c3c[nH]c4ncc(Cl)cc34)nc21 (relative stereo) [Compound B212]	1 to 10
O=C(O)[C@@H]1CCCC[C@H]1n1ccc2cnc(-c3c[nH]c4ncc(F)cc34)nc21 (single isomer, unassigned) [Compound B17]	< 1
O=C(O)[C@H]1CCCC1n1ccc2cnc(-c3c[nH]c4ncc(F)cc34)nc21 (single isomer, unassigned) [Compound B21]	1 to 10
O=C(O)[C@H]1CCCC1n1ccc2cnc(-c3c[nH]c4ncc(F)cc34)nc21 (single isomer, unassigned) [Compound B22]	1 to 10
O=C(O)[C@@H]1CCCC[C@H]1n1ccc2cnc(-c3c[nH]c4ncc(F)cc34)nc21 (single isomer, unassigned) [Compound B24]	< 1
CNC(=O)[C@@H]1CCCC[C@H]1n1cc(F)c2cnc(-c3c[nH]c4ncc(Cl)cc34)nc21 (single isomer, unassigned) [Compound B93]	1 to 10
O=C(O)[C@H]1C2CCC(CC2)C1n1cc(Cl)c2cnc(-c3c[nH]c4ncc(F)cc34)nc21 (single isomer, unassigned) [Compound B132]	< 1
O=C(O)[C@H]1C2CCC(CC2)C1n1cc(Cl)c2cnc(-c3c[nH]c4ncc(F)cc34)nc21 (single isomer, unassigned) [Compound B133]	< 1
O=C(O)[C@@H]1C2CCC(CC2)C1n1cc(Cl)c2cnc(-c3c[nH]c4ncc(Cl)cc34)nc21 (single isomer, unassigned) [Compound B136]	1 to 10
O=C(O)[C@@H]1C2CCC(CC2)C1n1cc(Cl)c2cnc(-c3c[nH]c4ncc(Cl)cc34)nc21 (single isomer, unassigned) [Compound B137]	< 1
O=C(O)[C@@H]1C2CCC(CC2)C1n1cc(F)c2cnc(-c3c[nH]c4ncc(Cl)cc34)nc21 (single isomer, unassigned) [Compound B143]	< 1
O=C(O)[C@@H]1C2CCC(CC2)C1n1cc(F)c2cnc(-c3c[nH]c4ncc(Cl)cc34)nc21 (single isomer, unassigned) [Compound B144]	< 1
O=C(O)[C@@H]1C2CCC(CC2)C1n1cc(-c2ccncc2)c2cnc(-c3c[nH]c4ncc(Cl)cc34)nc21 (single isomer, unassigned) [Compound B189]	1 to 10
O=C(O)[C@@H]1C2CCC(CC2)C1n1cc(-c2ccncc2)c2cnc(-c3c[nH]c4ncc(Cl)cc34)nc21 (single isomer, unassigned) [Compound B190]	1 to 10
CNC(=O)[C@@H]1C2CCC(CC2)C1n1cc(F)c2cnc(-c3c[nH]c4ncc(Cl)cc34)nc21 (single isomer, unassigned) [Compound B194]	1 to 10
CNC(=O)[C@@H]1C2CCC(CC2)C1n1cc(F)c2cnc(-c3c[nH]c4ncc(Cl)cc34)nc21 (single isomer, unassigned) [Compound B195]	10 to 100
CN(C)C(=O)Cn1ccc2c(-c3c[nH]c4ncc(F)cc34)ncnc21 [Compound A1]	10 to 100
COC(=O)CCn1ccc2c(-c3c[nH]c4ncc(F)cc34)ncnc21 [Compound A2]	10 to 100
O=C(O)Cn1ccc2c(-c3c[nH]c4ncc(F)cc34)ncnc21 [Compound A3]	1 to 10
CN(C)C(=O)CCn1ccc2c(-c3c[nH]c4ncc(F)cc34)ncnc21 [Compound A4]	10 to 100

SMILES	IC50 [µM]
O=C(O)CCn1ccc2c(-c3c[nH]c4ncc(F)cc34)ncnc21 [Compound A5]	10 to 100
O=C(O)CNC(=O)Cn1ccc2c(-c3c[nH]c4ncc(F)cc34)ncnc21 [Compound A6]	10 to 100
C[C@H](NC(=O)Cn1ccc2c(-c3c[nH]c4ncc(F)cc34)ncnc21)C(=O)O [Compound A7]	10 to 100
COC(=O)[C@H](Cc1ccccc1)NC(=O)Cn1ccc2c(-c3c[nH]c4ncc(F)cc34)ncnc21 [Compound A8]	> 100
O=C(O)[C@H]1CCCN1C(=O)Cn1ccc2c(-c3c[nH]c4ncc(F)cc34)ncnc21 [Compound A9]	10 to 100
COC(=O)[C@H](C)NC(=O)Cn1ccc2c(-c3c[nH]c4ncc(F)cc34)ncnc21 [Compound A10]	10 to 100
O=C(Cn1ccc2c(-c3c[nH]c4ncc(F)cc34)ncnc21)N[C@@H](Cc1ccccc1)C(=O)O [Compound A11]	10 to 100
COC(=O)C[C@H](NC(=O)Cn1ccc2c(-c3c[nH]c4ncc(F)cc34)ncnc21)C(=O)OC [Compound A12]	> 100
COC(=O)[C@H](CO)NC(=O)Cn1ccc2c(-c3c[nH]c4ncc(F)cc34)ncnc21 [Compound A13]	> 100
O=C(O)C[C@H](NC(=O)Cn1ccc2c(-c3c[nH]c4ncc(F)cc34)ncnc21)C(=O)O [Compound A14]	1 to 10
COC(=O)[C@H]1CCCN1C(=O)Cn1ccc2c(-c3c[nH]c4ncc(F)cc34)ncnc21 [Compound A15]	> 100
COC(=O)CNC(=O)CCn1ccc2c(-c3c[nH]c4ncc(F)cc34)ncnc21 [Compound A16]	> 100
NC(=O)C[C@H](NC(=O)Cn1ccc2c(-c3c[nH]c4ncc(F)cc34)ncnc21)C(=O)O [Compound A17]	1 to 10
COC(=O)[C@@H](Cc1ccccc1)NC(=O)CCn1ccc2c(-c3c[nH]c4ncc(F)cc34)ncnc21 [Compound A18]	> 100
COC(=O)[C@H](CO)NC(=O)CCn1ccc2c(-c3c[nH]c4ncc(F)cc34)ncnc21 [Compound A19]	10 to 100
O=C(Cn1ccc2c(-c3c[nH]c4ncc(F)cc34)ncnc21)N[C@@H](CO)C(=O)O [Compound A20]	1 to 10
CN(C)C(=O)Cn1ccc2cnc(-c3c[nH]c4ncc(F)cc34)nc21 [Compound B1]	10 to 100
CN(C)C(=O)CCn1ccc2cnc(-c3c[nH]c4ncc(F)cc34)nc21 [Compound B2]	10 to 100
COC(=O)CCn1ccc2cnc(-c3c[nH]c4ncc(F)cc34)nc21 [Compound B3]	> 100
O=C(O)Cn1ccc2cnc(-c3c[nH]c4ncc(F)cc34)nc21 [Compound B4]	10 to 100
O=C(O)CCn1ccc2cnc(-c3c[nH]c4ncc(F)cc34)nc21 [Compound B5]	10 to 100
CN(C)C(=O)CN1CCc2cnc(-c3c[nH]c4ncc(F)cc34)nc21 [Compound B6]	10 to 100
COC(=O)[C@H](C)NC(=O)Cn1ccc2cnc(-c3c[nH]c4ncc(F)cc34)nc21 [Compound B7]	> 100
COC(=O)[C@H](Cc1ccccc1)NC(=O)Cn1ccc2cnc(-c3c[nH]c4ncc(F)cc34)nc21 [Compound B8]	> 100

SMILES	IC50 [µM]
O=C(O)CN1CCc2cnc(-c3c[nH]c4ncc(F)cc34)nc21 [Compound B9]	> 100
COC(=O)CNC(=O)Cn1ccc2cnc(-c3c[nH]c4ncc(F)cc34)nc21 [Compound B10]	> 100
C[C@H](NC(=O)Cn1ccc2cnc(-c3c[nH]c4ncc(F)cc34)nc21)C(=O)O [Compound B11]	10 to 100
CN(C)C(=O)CCN1CCc2cnc(-c3c[nH]c4ncc(F)cc34)nc21 [Compound B12]	10 to 100
O=C(O)CCN1CCc2cnc(-c3c[nH]c4ncc(F)cc34)nc21 [Compound B13]	10 to 100
O=C(Cn1ccc2cnc(-c3c[nH]c4ncc(F)cc34)nc21)N[C@@H](Cc1ccccc1)C(=O)O [Compound B14]	10 to 100
O=C(O)[C@H]1CCC[C@@H]1n1ccc2cnc(-c3c[nH]c4ncc(F)cc34)nc21 [Compound B16]	1 to 10
O=C(O)/C=C/n1ccc2cnc(-c3c[nH]c4ncc(F)cc34)nc21 [Compound B18]	10 to 100
COC(=O)[C@@H]1CCC[C@H]1n1ccc2cnc(-c3c[nH]c4ncc(F)cc34)nc21 [Compound B19]	1 to 10
COC(=O)[C@H]1CCCC[C@@H]1n1ccc2cnc(-c3c[nH]c4ncc(F)cc34)nc21 [Compound B20]	10 to 100
COC(=O)/C=C/n1ccc2cnc(-c3c[nH]c4ncc(F)cc34)nc21 [Compound B23]	10 to 100
CCOCCOCCOCCNC(=O)[C@@H]1CCCC[C@H]1n1ccc2cnc(-c3c[nH]c4ncc(F)cc34)nc21 [Compound B25]	1 to 10
CCOCCOCCOCCN(C)C(=O)[C@@H]1CCCC[C@H]1n1ccc2cnc(-c3c[nH]c4ncc(F)cc34)nc21 [Compound B26]	10 to 100
CCOCCOCCOCCNC(=O)N[C@H]1CCC[C@@H](n2ccc3cnc(-c4c[nH]c5ncc(F)cc45)nc32)C1 [Compound B27]	10 to 100
CCOCCOCCOCC(=O)N[C@@H]1CCC[C@H](n2ccc3cnc(-c4c[nH]c5ncc(F)cc45)nc32)C1 [Compound B28]	10 to 100
CCOCCOCCOCCN(C)C(=O)N[C@H]1CCC[C@@H](n2ccc3cnc(-c4c[nH]c5ncc(F)cc45)nc32)C1 [Compound B29]	10 to 100
CCOCCOCCOCCNC(=O)[C@@H]1CCCC[C@@H]1n1ccc2cnc(-c3c[nH]c4ncc(F)cc34)nc21 [Compound B30]	10 to 100
CCOCCOCCOCCNC(=O)N1CCC[C@H](n2ccc3cnc(-c4c[nH]c5ncc(F)cc45)nc32)C1 [Compound B31]	10 to 100
CCOCCOCCOCC(=O)N1CCC[C@H](n2ccc3cnc(-c4c[nH]c5ncc(F)cc45)nc32)C1 [Compound B32]	10 to 100
CCCCCOCCOCCNC(=O)N1CCC[C@H](n2ccc3cnc(-c4c[nH]c5ncc(F)cc45)nc32)C1 [Compound B33]	10 to 100
CCCCCOCCCCCNC(=O)N1CCC[C@H](n2ccc3cnc(-c4c[nH]c5ncc(F)cc45)nc32)C1 [Compound B34]	> 100
CCOCCCCCOCCNC(=O)N1CCC[C@H](n2ccc3cnc(-c4c[nH]c5ncc(F)cc45)nc32)C1 [Compound B35]	10 to 100
